Measured values reported in PubChem BioAssay (NCI).
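Interpolation was linear, between the two tested concentrations surrounding the appropriate level; five concentrations were tested over 48 hours in 96-well plates. Abbreviation: GI50, concentration required for 50% inhibition of growth. TGI marks complete inhibition of growth.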

What was measured:
Test in all cases: inhibition of tumour cell growth, NCI panel, 48 h
786-0 renal = system: 786-0 renal
A498 renal = system: A498 renal
A549 NSCLC = system: A549 NSCLC
ACHN renal = system: ACHN renal
BT-549 breast = system: BT-549 breast
CAKI-1 renal = system: CAKI-1 renal
CCRF-CEM leukemia = system: CCRF-CEM leukemia
COLO 205 colon = system: COLO 205 colon
DU-145 prostate = system: DU-145 prostate
EKVX NSCLC = system: EKVX NSCLC
HCC-2998 colon = system: HCC-2998 colon
HCT-116 colon = system: HCT-116 colon
HCT-15 colon = system: HCT-15 colon
HL-60(TB) leukemia = system: HL-60(TB) leukemia
HOP-62 NSCLC = system: HOP-62 NSCLC
HOP-92 NSCLC = system: HOP-92 NSCLC
HS 578T breast = system: HS 578T breast
HT29 colon = system: HT29 colon
K-562 leukemia = system: K-562 leukemia
KM12 colon = system: KM12 colon
LOX IMVI melanoma = system: LOX IMVI melanoma
M14 melanoma = system: M14 melanoma
MALME-3M melanoma = system: MALME-3M melanoma
MCF7 breast = system: MCF7 breast
MDA-MB-231 breast = system: MDA-MB-231 breast
MDA-MB-435 = system: MDA-MB-435
MOLT-4 leukemia = system: MOLT-4 leukemia
NCI-H226 lung = system: NCI-H226 lung
NCI-H23 lung = system: NCI-H23 lung
NCI-H460 lung = system: NCI-H460 lung
NCI-H522 lung = system: NCI-H522 lung
NCI/ADR-RES ovarian = system: NCI/ADR-RES ovarian
OVCAR-3 ovarian = system: OVCAR-3 ovarian
OVCAR-4 ovarian = system: OVCAR-4 ovarian
OVCAR-5 ovarian = system: OVCAR-5 ovarian
OVCAR-8 ovarian = system: OVCAR-8 ovarian
PC-3 prostate = system: PC-3 prostate
RPMI-8226 leukemia = system: RPMI-8226 leukemia
RXF 393 renal = system: RXF 393 renal
SF-268 CNS = system: SF-268 CNS
SF-295 CNS = system: SF-295 CNS
SK-MEL-28 melanoma = system: SK-MEL-28 melanoma
SK-MEL-5 melanoma = system: SK-MEL-5 melanoma
SK-OV-3 ovarian = system: SK-OV-3 ovarian
SN12C renal = system: SN12C renal
SNB-19 CNS = system: SNB-19 CNS
SNB-75 CNS = system: SNB-75 CNS
SR leukemia = system: SR leukemia
SW-620 colon = system: SW-620 colon
T-47D breast = system: T-47D breast
TK-10 renal = system: TK-10 renal
U251 CNS = system: U251 CNS
UACC-257 melanoma = system: UACC-257 melanoma
UACC-62 melanoma = system: UACC-62 melanoma
UO-31 renal = system: UO-31 renal

`N#Cc1c(-c2ccccc2)nc(SCC(O)CN2CCOCC2)nc1N1CCOCC1` (centres undefined) showed a GI50 (786-0 renal) of 14.8 µM, a TGI (786-0 renal) greater than 100 µM and a GI50 (A498 renal) of 2.43 µM. For the same molecule, the TGI (A498 renal) was 23 µM, the GI50 (A549 NSCLC) was 6.43 µM and the TGI (A549 NSCLC) was greater than 100 µM. The GI50 (ACHN renal) was 10.8 µM, the TGI (ACHN renal) was greater than 100 µM and the GI50 (BT-549 breast) was 7.26 µM. It also gave a TGI (BT-549 breast) greater than 100 µM, a GI50 (CAKI-1 renal) of 1.67 µM and a GI50 (CCRF-CEM leukemia) of 88 µM. The TGI (CCRF-CEM leukemia) was greater than 100 µM, the GI50 (COLO 205 colon) was 29.6 µM and the TGI (COLO 205 colon) was 84.6 µM. For the same molecule, the GI50 (DU-145 prostate) was 24.5 µM, the TGI (DU-145 prostate) was greater than 100 µM and the GI50 (EKVX NSCLC) was 7.52 µM. It also gave a TGI (EKVX NSCLC) greater than 100 µM, a GI50 (HCC-2998 colon) of 47 µM and a TGI (HCC-2998 colon) greater than 100 µM. For the same molecule, the GI50 (HCT-116 colon) was 32.4 µM, the TGI (HCT-116 colon) was greater than 100 µM and the GI50 (HCT-15 colon) was 9.16 µM. For the same molecule, the TGI (HCT-15 colon) was greater than 100 µM, the GI50 (HL-60(TB) leukemia) was 4.05 µM and the TGI (HL-60(TB) leukemia) was 15.3 µM. For the same molecule, the GI50 (HOP-62 NSCLC) was 29 µM, the TGI (HOP-62 NSCLC) was greater than 100 µM and the GI50 (HOP-92 NSCLC) was 0.442 µM. It also gave a TGI (HOP-92 NSCLC) of 2.23 µM, a GI50 (HS 578T breast) of 6.22 µM and a TGI (HS 578T breast) of 63.2 µM. For the same molecule, the GI50 (HT29 colon) was 15.9 µM, the TGI (HT29 colon) was greater than 100 µM and the GI50 (K-562 leukemia) was 20 µM. For the same molecule, the TGI (K-562 leukemia) was greater than 100 µM, the GI50 (KM12 colon) was 30.2 µM and the TGI (KM12 colon) was greater than 100 µM. It also gave a GI50 (LOX IMVI melanoma) of 17.6 µM, a TGI (LOX IMVI melanoma) greater than 100 µM and a GI50 (M14 melanoma) of 50 µM. The TGI (M14 melanoma) was greater than 100 µM, the GI50 (MALME-3M melanoma) was 4.73 µM and the TGI (MALME-3M melanoma) was greater than 100 µM. For the same molecule, the GI50 (MCF7 breast) was 0.098 µM, the TGI (MCF7 breast) was 8.51 µM and the GI50 (MDA-MB-231 breast) was 8.36 µM. The TGI (MDA-MB-231 breast) was greater than 100 µM, the GI50 (MDA-MB-435) was 19.6 µM and the TGI (MDA-MB-435) was greater than 100 µM. For the same molecule, the GI50 (MOLT-4 leukemia) was 16.1 µM, the TGI (MOLT-4 leukemia) was greater than 100 µM and the GI50 (NCI-H226 lung) was 7.12 µM. For the same molecule, the TGI (NCI-H226 lung) was greater than 100 µM, the GI50 (NCI-H23 lung) was 37.5 µM and the TGI (NCI-H23 lung) was greater than 100 µM. It also gave a GI50 (NCI-H460 lung) of 7.03 µM, a TGI (NCI-H460 lung) greater than 100 µM and a GI50 (NCI-H522 lung) of 18.3 µM. For the same molecule, the TGI (NCI-H522 lung) was greater than 100 µM, the GI50 (NCI/ADR-RES ovarian) was 39.5 µM and the TGI (NCI/ADR-RES ovarian) was greater than 100 µM. The GI50 (OVCAR-3 ovarian) was 15.4 µM, the TGI (OVCAR-3 ovarian) was greater than 100 µM and the GI50 (OVCAR-4 ovarian) was 16.3 µM. It also gave a TGI (OVCAR-4 ovarian) greater than 100 µM, a GI50 (OVCAR-5 ovarian) of 19 µM and a TGI (OVCAR-5 ovarian) greater than 100 µM. The GI50 (OVCAR-8 ovarian) was 11.4 µM, the TGI (OVCAR-8 ovarian) was greater than 100 µM and the GI50 (PC-3 prostate) was 2.42 µM. The TGI (PC-3 prostate) was 7.7 µM, the GI50 (RPMI-8226 leukemia) was 7.78 µM and the TGI (RPMI-8226 leukemia) was 41.6 µM. For the same molecule, the GI50 (RXF 393 renal) was 5.55 µM, the TGI (RXF 393 renal) was 31.8 µM and the GI50 (SF-268 CNS) was 17.8 µM. For the same molecule, the TGI (SF-268 CNS) was greater than 100 µM, the GI50 (SF-295 CNS) was 5.49 µM and the TGI (SF-295 CNS) was greater than 100 µM. For the same molecule, the GI50 (SK-MEL-28 melanoma) was 11.2 µM, the TGI (SK-MEL-28 melanoma) was greater than 100 µM and the GI50 (SK-MEL-5 melanoma) was 2.99 µM. The TGI (SK-MEL-5 melanoma) was 47.9 µM, the GI50 (SK-OV-3 ovarian) was 1.87 µM and the TGI (SK-OV-3 ovarian) was 12 µM. It also gave a GI50 (SN12C renal) of 18.9 µM, a TGI (SN12C renal) greater than 100 µM and a GI50 (SNB-19 CNS) of 15 µM. For the same molecule, the TGI (SNB-19 CNS) was 94.8 µM, the GI50 (SNB-75 CNS) was 1.36 µM and the TGI (SNB-75 CNS) was 11.1 µM. For the same molecule, the GI50 (SR leukemia) was 32.2 µM, the TGI (SR leukemia) was greater than 100 µM and the GI50 (SW-620 colon) was 51.9 µM. For the same molecule, the TGI (SW-620 colon) was greater than 100 µM, the GI50 (T-47D breast) was 1.33 µM and the TGI (T-47D breast) was 6.03 µM. It also gave a GI50 (TK-10 renal) of 10.9 µM, a TGI (TK-10 renal) greater than 100 µM and a GI50 (U251 CNS) of 24.4 µM. It also gave a TGI (U251 CNS) greater than 100 µM, a GI50 (UACC-257 melanoma) of 2.88 µM and a TGI (UACC-257 melanoma) of 45.7 µM. The GI50 (UACC-62 melanoma) was 3.55 µM, the TGI (UACC-62 melanoma) was greater than 100 µM and the GI50 (UO-31 renal) was 1.54 µM. The TGI (UO-31 renal) was greater than 100 µM.
